Measurements taken from PMC7756445, “A Novel Prodrug of a nNOS Inhibitor with Improved Pharmacokinetic Potential” (Chemmedchem, 2020).
Like-named read-outs stand apart in the source and are kept apart here.

How the values were obtained:
[1] = Log D and log P by shake-flask method; format: physicochemical; settings: for logP: shake-flask, as free amine, mean ± SD of three
Excerpt: The herein presented amidoxime 2 was designed as prodrug of the amidine 1 to improve membrane permeability and oral bioavailability. In this context, the deepening of the physicochemical properties is essential to obtain a favorable pharmacological profile. Therefore, we investigated the lipophilicity, the passive permeation through the human GI tract through the PAMPA assays, and the chemical and enzymatic stabilities in simulated GI fluids and plasma. […] In this study, the lipophilicity of our compounds was determined by means of the “shake‐flask method” and compared to the corresponding values calculated by the software. ^[43] However, for ionizable compounds, the distribution coefficient (log D) should be used instead of log P in the pH range where ionic species exist. ^[44] In this study, log P and log D were calculated (Table 1).
The column was a Waters Symmetry RP‐C18 column (4.6×150 mm, 5 μm). The mobile phase was a mixture of TFA 0.01 M/ACN/(MeOH/THF 90 : 10) 20/52/28 and the flow rate was 0.7 mL/min. The UV detector was set at a length of 254 nm.
Both n‐octanol and aqueous buffer (pH 1.4, 6.5 and 9.4) solutions were saturated of each other. 2 mg of tested compound was dissolved in 500 μL of organic phase and mixed with an equal volume of aqueous buffer by repeated inversions of up to 200 times for 5 min and then allowed to stand for 30 min for the phases to fully separate. Thereafter, the respective phases were analyzed by HPLC.

PAMPA-GI assay = test: PAMPA-GI assay; design: Papp at 2 h: dose or concentration left out as unconfirmed; settings: for Papp at 2 h: PAMPA; for PAMPA-GI permeability (in words): only at pH 7.4
Method: (§1) The relative passive transcellular diffusion of compounds, expressed as permeability coefficient (Pe), was determined with a permeability equation. ^[45] The permeabilities of 1, 2, and 1400 W were determined at pH 5.0, 6.5, and 7.4 to mimic the physiological conditions of the GI tract (Table 1). […] As the new prodrug was designed for the potential treatment of neurodegenerative diseases, an important parameter is its capability to cross the BBB.
Each donor filtration plate well, carefully impregnated with 5 µL of this solution, was added of 150 μL of […] test compound buffer solutions (phosphate buffer for pH 7.4 and pH 6.5 and hydrochloric acid buffer for pH 1.4). Subsequently, the drug‐filled donor plate was placed onto the acceptor plate prefilled with the same buffer (300 μL) as the acceptor solution. Once replaced the plate lid, the resulting assembled donor‐acceptor plates were incubated at room temperature for 2 h. The concentration in the acceptor and donor solutions were determined by HPLC. The Pe was determined as previously reported. ^[47]

PAMPA-BBB assay = test: PAMPA-BBB assay; design: Papp at 18 h: dose or concentration left out as unconfirmed; settings: for Papp at 18 h: pig, PAMPA
Method: as §1
PAMPA‐BBB assays were performed following the same procedure described above for PAMPA‐GI. Briefly, an artificial membrane consisting in a porcine polar brain lipid extract mixture (purchased from Avantis Polar Lipids, Alabaster, AL, USA) and an incubation time of 18 h were adopted as experimental conditions.

mARC = test system: mARC; design: method as in PMID 31790578; settings: known in vivo studies; cited from earlier work
nNOS = test system: nNOS; design: method as in PMID 20933416; settings: previously reported; cited from earlier work
eNOS = test system: eNOS; design: method as in PMID 20933416; settings: previously reported; cited from earlier work
iNOS = test system: iNOS; design: method as in PMID 20933416; settings: previously reported; cited from earlier work
[2] = porcine polar brain lipid, 18 h

| Structure (SMILES) | logD ([1]; n-octanol/aqueous buffer pH 1.4, mean ± SD of three, read-out: log D 1.4) | logD ([1]; n-octanol/aqueous buffer pH 6.5, mean ± SD of three, read-out: log D 6.5) | logD ([1]; n-octanol/aqueous buffer pH 9.4, mean ± SD of three, read-out: log D 9.4) | logP ([1]; n-octanol/aqueous buffer) | Papp at 2 h (PAMPA-GI assay; pH 1.4) | Papp at 2 h (PAMPA-GI assay; pH 6.5) | Papp at 2 h (PAMPA-GI assay; pH 7.4) | PAMPA-GI permeability (in words) (PAMPA-GI assay) | Papp at 18 h (PAMPA-BBB assay) | PAMPA-BBB permeation class (PAMPA-BBB assay; [2]) | conversion to the corresponding benzamidine in vivo (mARC) | logD ([1]; n-octanol/aqueous buffer, pH 1.4, n-octanol/aqueous buffer pH 1.4, mean ± SD of three, read-out: log D 1.4) | logD ([1]; n-octanol/aqueous buffer, pH 6.5, n-octanol/aqueous buffer pH 6.5, mean ± SD of three, read-out: log D 6.5) | logD ([1]; n-octanol/aqueous buffer, pH 9.4, n-octanol/aqueous buffer pH 9.4, mean ± SD of three, read-out: log D 9.4) | Papp at 18 h (PAMPA-BBB assay; PAMPA-BBB permeability Pe, porcine polar brain lipid, 18 h) | melting point | IC50 (nNOS) | eNOS/nNOS selectivity (eNOS) | iNOS/nNOS selectivity (iNOS) |
| --- | --- | --- | --- | --- | --- | --- | --- | --- | --- | --- | --- | --- | --- | --- | --- | --- | --- | --- | --- |
| CC(=N)NCc1cccc(CN)c1 [1400 W, reference compound] | -1.82 | -1.78 | -1.66 | -1.66 | 0.98 ×10⁻⁶ cm/s | 1.02 ×10⁻⁶ cm/s | 1.86 ×10⁻⁶ cm/s | good permeability | 1.49 ×10⁻⁶ cm/s | CNS− (CNS− (indicative of low BBB permeation): Pe <2.0) |  |  |  |  |  |  |  |  |  |
| NC(=NO)c1ccccc1 [BAO, benzamidoxime] |  |  |  |  |  |  |  |  |  |  | completely converted |  |  |  |  |  |  |  |  |
| Br.CC(=N)NC(c1ccccc1)c1ccccc1 [Compound 1, 1‐(benzhydrylamino)ethaniminium bromide] |  |  |  | 2.54 | 0.57 ×10⁻⁶ cm/s | 1.02 ×10⁻⁶ cm/s | 1.88 ×10⁻⁶ cm/s | good permeability |  | CNS± (CNS± (discrete BBB permeation): Pe from 4.0 to 2.0) |  | -0.85 | -0.31 | 0.75 | 2.7 ×10⁻⁶ cm/s | 278 to 280 °C | 300 nM | 1166 folds | 100 folds |
